Laboratory results from patent publication US11739074B2, “Ras inhibitors” (Revolution Medicines, Inc., priority 2019, dated 2023).
Where two headings read alike, the source gives them in different places.

How the values were obtained:
Type in all cases: cell-based
[1] = system: AsPC-1 (K-Ras G12D); assay: Potency assay: pERK in AsPC-1 cells; details: Homo sapiens
[2] = system: AsPC-1 (K-Ras G12D); assay: CellTiter-Glo cell viability assay, AsPC-1; details: Homo sapiens, ASPC1, 120 h
Method in brief: (§1)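 Percent-of-DMSO luminescence values (CellTiter-Glo, day 5, plates equilibrated ~30 minutes at ambient temperature) were curve-fitted using a 4-parameter logistic equation; compounds had been added straight into wells containing the cells.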

[3] = system: NCI-H358 (K-Ras G12C); assay: CellTiter-Glo cell viability assay, H358; details: Homo sapiens, NCI-H358, 120 h
Method in brief: as §1

[4] = ASPC1, read-out: pERK EC50 (AsPC-1 KRAS G12D)
[5] = read-out: AsPC-1 Cell Viability IC50, AsPC-1, K-Ras G12D, 5-day treatment
[6] = read-out: H358 Cell Viability IC50, NCI-H358, K-Ras G12C, 5-day treatment
[7] = ASPC1, AsPC-1 cells, K-Ras G12D, read-out: pERK EC50 (AsPC-1 KRAS G12D)
[8] = AsPC-1, K-Ras G12D, 5-day treatment, read-out: AsPC-1 Cell Viability IC50
[9] = NCI-H358, K-Ras G12C, 5-day treatment, read-out: H358 Cell Viability IC50

Row | Compound | EC50 [1, 4] [nM] | IC50 [2, 5] [nM] | IC50 [3, 6] [nM] | EC50 [1, 7] [nM] | IC50 [2, 8] [nM] | IC50 [3, 9] [nM]
1 | CCn1c(-c2cccnc2[C@H](C)OC)c2c3cc(ccc31)-c1cc(O)cc(c1)C[C@H](NC(=O)[C@H](C(C)C)N(C)C(=O)CN(C)C(=O)[C@H]1N[C@H]1C(C)C)C(=O)N1CCC[C@H](N1)C(=O)OCC(C)(C)C2 [Compound 265] | < 5000 | 100 to 1000 | 10 to 100 |  |  | 
2 | CCn1c(-c2cccnc2[C@H](C)OC)c2c3cc(ccc31)-c1cc(O)cc(c1)C[C@H](NC(=O)[C@H](C(C)C)N(C)C(=O)[C@]1(C)CCCN1C(=O)[C@H]1CN1)C(=O)N1CCC[C@H](N1)C(=O)OCC(C)(C)C2 [Compound 243] |  |  |  | < 5000 | 100 to 1000 | 100 to 1000
3 | CCn1c(-c2cccnc2[C@H](C)OC)c2c3cc(ccc31)-c1cc(O)cc(c1)C[C@H](NC(=O)[C@H](C(C)C)N(C)C(=O)CN(C)C(=O)[C@H]1N[C@H]1C1CCC1)C(=O)N1CCC[C@H](N1)C(=O)OCC(C)(C)C2 [Compound 288] | < 5000 | 100 to 1000 | 10 to 100 |  |  | 
4 | CCn1c(-c2cccnc2[C@H](C)OC)c2c3cc(ccc31)-c1csc(n1)C[C@H](NC(=O)[C@H](C(C)C)N(C)C(=O)N1CCCN(C(=O)[C@H]3CN3)CC1)C(=O)N1CCC[C@H](N1)C(=O)OCC(C)(C)C2 [Compound 222] |  |  |  | < 5000 | 100 to 1000 | < 10
5 | CCn1c(-c2cccnc2[C@H](C)OC)c2c3cc(ccc31)-c1csc(n1)C[C@H](NC(=O)[C@H](C(C)C)N(C)C(=O)N(C)[C@H]1CCN(C(=O)[C@H]3CN3)C1)C(=O)N1CCC[C@H](N1)C(=O)OCC(C)(C)C2 [Compound 296] |  |  |  | < 5000 | 1000 to 10000 | 10 to 100
6 | CCn1c(-c2cccnc2[C@H](C)OC)c2c3cc(ccc31)-c1csc(n1)C[C@H](NC(=O)[C@H](C(C)C)N(C)C(=O)N1CC[C@@H](N(C)C(=O)[C@@H]3CN3)C1)C(=O)N1CCC[C@H](N1)C(=O)OCC(C)(C)C2 [Compound 227] |  |  |  | < 5000 | 1000 to 10000 | 10 to 100
7 | CCn1c(-c2cccnc2[C@H](C)OC)c2c3cc(ccc31)-c1csc(n1)C[C@H](NC(=O)[C@H](C(C)C)N(C)C(=O)N(C)CC1CN(C(=O)[C@H]3CN3)C1)C(=O)N1CCC[C@H](N1)C(=O)OCC(C)(C)C2 [Compound 293] |  |  |  | < 5000 | 1000 to 10000 | 10 to 100
8 | CCn1c(-c2cccnc2[C@H](C)OC)c2c3cc(ccc31)-c1cc(O)cc(c1)C[C@H](NC(=O)[C@H](C(C)C)N(C)C(=O)CN(C)C(=O)[C@@H]1CN1CCOC)C(=O)N1CCC[C@H](N1)C(=O)OCC(C)(C)C2 (stereo partly drawn) [Compound 160] | < 5000 | 100 to 1000 | < 10 |  |  | 
9 | CCn1c(-c2cccnc2[C@H](C)OC)c2c3cc(ccc31)-c1csc(n1)C[C@H](NC(=O)[C@H](C(C)C)N(C)C(=O)N1CCN(C(=O)[C@@H]3CN3)CC1)C(=O)N1CCC[C@H](N1)C(=O)OCC(C)(C)C2 [Compound 168] |  |  |  | < 5000 | 100 to 1000 | 10 to 100
10 | CC[C@H]1N[C@H]1C(=O)N(C)CC(=O)N(C)[C@H](C(=O)N[C@H]1Cc2cc(O)cc(c2)-c2ccc3c(c2)c(c(-c2cccnc2[C@H](C)OC)n3CC)CC(C)(C)COC(=O)[C@@H]2CCCN(N2)C1=O)C(C)C [Compound 262] | < 5000 | 100 to 1000 | 10 to 100 |  |  | 
11 | CCn1c(-c2cccnc2[C@H](C)OC)c2c3cc(ccc31)-c1csc(n1)C[C@H](NC(=O)[C@H](C(C)C)N(C)C(=O)N1CCN(C(=O)[C@H]3CN3)[C@@H](C)C1)C(=O)N1CCC[C@H](N1)C(=O)OCC(C)(C)C2 [Compound 297] |  |  |  | < 5000 | 100 to 1000 | 10 to 100
12 | CCn1c(-c2cc(N3CCN(C)CC3)cnc2[C@H](C)OC)c2c3cc(ccc31)-c1cc(O)cc(c1)C[C@H](NC(=O)[C@H](C1CCCC1)N(C)C(=O)CN(C)C(=O)[C@@H]1N[C@@H]1C1CC1)C(=O)N1CCC[C@H](N1)C(=O)OCC(C)(C)C2 [Compound 325] |  |  |  | < 5000 | < 10 | < 10
13 | CCn1c(-c2cccnc2[C@H](C)OC)c2c3cc(ccc31)-c1cc(O)cc(c1)C[C@H](NC(=O)[C@H](C(C)C)N(C)C(=O)CN(C)C(=O)[C@]1(C)CN1)C(=O)N1CCC[C@H](N1)C(=O)OCC(C)(C)C2 [Compound 257] | < 5000 | 100 to 1000 | 10 to 100 |  |  | 
14 | CCn1c(-c2cccnc2[C@H](C)OC)c2c3cc(ccc31)-c1cc(O)cc(c1)C[C@H](NC(=O)[C@H](C(C)C)N(C)C(=O)CN(C)C(=O)[C@H]1N[C@H]1C(F)(F)F)C(=O)N1CCC[C@H](N1)C(=O)OCC(C)(C)C2 [Compound 259] | < 5000 | 100 to 1000 | 10 to 100 |  |  | 
15 | CCn1c(-c2cccnc2[C@H](C)OC)c2c3cc(ccc31)-c1cc(O)cc(c1)C[C@H](NC(=O)[C@H](C(C)C)N(C)C(=O)CN(C)C(=O)[C@@]1(C)CN1)C(=O)N1CCC[C@H](N1)C(=O)OCC(C)(C)C2 [Compound 256] | < 5000 | 100 to 1000 | 10 to 100 |  |  | 
16 | CCn1c(-c2cccnc2[C@H](C)OC)c2c3cc(ccc31)-c1cc(O)cc(c1)C[C@H](NC(=O)[C@H](C(C)C)N(C)C(=O)CN(C)C(=O)[C@H]1CN1Cc1ccccc1F)C(=O)N1CCC[C@H](N1)C(=O)OCC(C)(C)C2 (stereo partly drawn) [Compound 155] | < 5000 | 100 to 1000 | < 10 |  |  | 
17 | CCn1c(-c2cccnc2[C@H](C)OC)c2c3cc(ccc31)-c1cc(O)cc(c1)C[C@H](NC(=O)[C@H](C(C)C)N(C)C(=O)CN(C)C(=O)[C@H]1CN1CC1COC1)C(=O)N1CCC[C@H](N1)C(=O)OCC(C)(C)C2 (stereo partly drawn) [Compound 277] | < 5000 | 100 to 1000 | 10 to 100 |  |  | 
18 | CCn1c(-c2cccnc2[C@H](C)OC)c2c3cc(ccc31)-c1cc(O)cc(c1)C[C@H](NC(=O)[C@H](C(C)C)N(C)C(=O)CN(C)C(=O)[C@@H]1N[C@@H]1C(F)(F)F)C(=O)N1CCC[C@H](N1)C(=O)OCC(C)(C)C2 [Compound 258] | < 5000 | 100 to 1000 | 10 to 100 |  |  | 
19 | CCn1c(-c2cccnc2[C@H](C)OC)c2c3cc(ccc31)-c1cc(O)cc(c1)C[C@H](NC(=O)[C@H](C(C)C)N(C)C(=O)[C@@H]1CO[C@H](C)CN1C(=O)[C@H]1CN1)C(=O)N1CCC[C@H](N1)C(=O)OCC(C)(C)C2 [Compound 248] |  |  |  | < 5000 | 100 to 1000 | 10 to 100
20 | CCn1c(-c2cccnc2[C@H](C)OC)c2c3cc(ccc31)-c1cc(O)cc(c1)C[C@H](NC(=O)[C@H](C(C)C)N(C)C(=O)CN(C)C(=O)[C@@H]1N[C@@H]1C(C)C)C(=O)N1CCC[C@H](N1)C(=O)OCC(C)(C)C2 [Compound 264] | < 5000 | 100 to 1000 | 10 to 100 |  |  | 
21 | CCn1c(-c2cccnc2[C@H](C)OC)c2c3cc(ccc31)-c1cc(O)cc(c1)C[C@H](NC(=O)[C@H](C(C)C)N(C)C(=O)CN(C)C(=O)[C@H]1C[C@@H]3N[C@@H]3C1)C(=O)N1CCC[C@H](N1)C(=O)OCC(C)(C)C2 [Compound 285] |  |  |  | < 5000 | 10 to 100 | 100 to 1000
22 | CCn1c(-c2cccnc2[C@H](C)OC)c2c3cc(ccc31)-c1cc(O)cc(c1)C[C@H](NC(=O)[C@H](C(C)C)N(C)C(=O)c1ncc(NC(=O)[C@@H]3CN3)n1C)C(=O)N1CCC[C@H](N1)C(=O)OCC(C)(C)C2 [Compound 83] |  |  |  | < 5000 | 1000 to 10000 | 10 to 100
23 | CCn1c(-c2cccnc2[C@H](C)OC)c2c3cc(ccc31)-c1csc(n1)C[C@H](NC(=O)[C@H](C1CCCC1)N(C)C(=O)CN(C)C(=O)[C@@H]1N[C@@H]1C1CC1)C(=O)N1CCC[C@H](N1)C(=O)OCC(C)(C)C2 [Compound 210] |  |  |  | < 5000 | 100 to 1000 | 100 to 1000
24 | CCn1c(-c2cccnc2[C@H](C)OC)c2c3cc(ccc31)-c1csc(n1)C[C@H](NC(=O)[C@H](C(C)C)N(C)C(=O)N(C)CC1CN(C(=O)[C@@H]3CN3)C1)C(=O)N1CCC[C@H](N1)C(=O)OCC(C)(C)C2 [Compound 294] |  |  |  | < 5000 | 1000 to 10000 | 100 to 1000
25 | CCn1c(-c2cccnc2[C@H](C)OC)c2c3cc(ccc31)-c1cc(O)cc(c1)C[C@H](NC(=O)[C@H](C1CCCC1)N(C)C(=O)CN(C)C(=O)[C@@H]1N[C@@H]1C1(OC)CC1)C(=O)N1CCC[C@H](N1)C(=O)OCC(C)(C)C2 (single isomer, unassigned) [Compound 323] |  |  |  | < 5000 | 100 to 1000 | 10 to 100
26 | CCn1c(-c2cccnc2[C@H](C)OC)c2c3cc(ccc31)-c1csc(n1)C[C@H](NC(=O)[C@H](C(C)C)N(C)C(=O)N1CCC(CN(C)C(=O)[C@H]3CN3)CC1)C(=O)N1CCC[C@H](N1)C(=O)OCC(C)(C)C2 [Compound 326] |  |  |  | < 5000 | 100 to 1000 | 10 to 100
27 | CCn1c(-c2cccnc2[C@H](C)OC)c2c3cc(ccc31)-c1cc(O)cc(c1)C[C@H](NC(=O)[C@H](C(C)C)N(C)C(=O)[C@H]1CCN(S(=O)(=O)[C@@H]3CN3C)C1)C(=O)N1CCC[C@H](N1)C(=O)OCC(C)(C)C2 (single isomer, unassigned) [Compound 56] |  |  |  | < 5000 | 1000 to 10000 | 100 to 1000
28 | CCn1c(-c2cccnc2[C@H](C)OC)c2c3cc(ccc31)-c1cc(O)cc(c1)C[C@H](NC(=O)[C@H](C(C)C)N(C)C(=O)[C@H]1CCCN(C(=O)[C@H]3CN3)C1)C(=O)N1CCC[C@H](N1)C(=O)OCC(C)(C)C2 [Compound 165] |  |  |  | < 5000 | 1000 to 10000 | < 10
